The test system of assay [1] is androgen receptor. The following applies: prostate cancer cells; cited from earlier work.
In assay [2] the test system is underarm odor, axillae skin of a panel of human subjects. Description: Deodorant value test (modified): underarm odor scored 0-5 by three assessors every 24 h. In kind it is in vivo. Particulars: Example 2; single solution on one axilla versus vehicle on the other; compared with 8.2% aluminum chlorohydrate and 0.4% chlorhexidine digluconate. An excerpt:
A test for the deodorant effects of monensin or resveratrol alone was first carried out. The positive controls were 8.2% aluminum chlorohydrate, a level that is used in most deodorant or antiperspirant products on the market and 0.4% chlorhexidine digluconate, a level that is usually used for bacterial killing. The negative control was a vehicle consisting of 60% ethanol and 40% water. Three experienced underarm odor assessors who are able to correctly rank the odor intensities based on the deodorant value test system U.S. Pat. No. 4,278,658) performed odor assessments. I)odorant assessment scores were recorded according to the inalodor category scale, when applied directly to the axillae skin of a panel of human subjects.
The test described in deodorant value test system has been modified by measuring odor intensity every 24 hours after treatment until odor intensity is detectable (score 1 or up) on a 0-5 score instead of just 24 hours after treatment.
In this test, twenty subjects selected by experienced odor assessors have an average odor score of 3.5 (range from score 3-5). To prevent any any-over effects from occurring, all of subjects have not used any underarm products before test for at least 10 days. […] At 24 hour intervals, each subject was evaluated for underarm odor by averaging the score of the three assessors until odor in test groups was detectable (score 1 or up). […]

For assay [3], the system named is apo D. Particulars: cited from earlier work.

Results on two compounds are retold here after patent publication US6426061B1, “Method and composition for preventing sweat-related odor” (priority 2001, dated 2002).

With `Oc1ccc(C=Cc2cc(O)cc(O)c2)cc1` [Resveratrol, resveratrol], in assay [1], the “effect on expression and function of the androgen receptor” value is “inhibit the expression and function of the androgen receptor”.
In the case of `CC[C@@]1([C@@H]2O[C@@H]([C@H]3O[C@@](O)(CO)[C@H](C)C[C@@H]3C)C[C@@H]2C)CC[C@H]([C@]2(C)CC[C@]3(C[C@H](O)[C@@H](C)[C@@H]([C@@H](C)[C@@H](OC)[C@H](C)C(=O)O)O3)O2)O1` [monensin], the “effectiveness in preventing underarm odor (deodorant effect, FIG. 1)” value in assay [2] is on record as “more effective in preventing underarm odor than the positive control products”. In addition, the “effect on secretion of apo D from cells” value in assay [3] is “decreases secretion of apo D from cells”.
